Assay results as given in US9556153B1, “JAK1 inhibitors” (Eli Lilly and Company, priority 2015, dated 2017).

How the values were obtained:
JAK2 = JAK2 (Homo sapiens, UniProt O60674); assay: Human whole blood assay: pSTAT5 (JAK2) in monocytes; format: cell-based; parameters: endogenous in cells; host or cells: human whole blood, CD4Low CD33Hi monocytes; settings: HWB, GM-CSF stimulated, CD4Low CD33Hi monocytes; n=3
Excerpt: Human Whole Blood Assays: Determination of pSTAT3 (JAK1) and pSTAT5 (JAK2) in Lymphocytes and Monocytes
Human whole blood (HWB) assays were developed and validated to determine the JAK1 and JAK2 selectivity of test compounds.
Dilute the test compounds, 10 points, (1:3) in DMSO 100% and a step down in PBS+0.1% BSA. Use tofacitinib as a reference compound in each plate, as well as a maximum signal (stimulated wells) and a minimum signal (no stimulated wells) in order to normalize data. Obtain a pool of HWB from 4 different healthy donors. Plate the blood in a 96 well plate using a Tecan Evo 96w and incubate with test compounds for 1 h at RT. After this time of incubation, stimulate HWB with both IL6 (206-IL, R&D System) and GM-CSF (PHC2015, Life Technologies) for 15 more minutes. […]
The final concentrations in the assay are the following: 100 μM for compounds, 50 μM for tofacitinib, 0.1 μg/mL IL6, 0.038 μg/mL GM-CSF and 1% DMSO. […] Incubate the antibodies for 1 h in dark at RT, then wash cells 2× and read on Cytometer Macsquant (Miltenyi Biotec). Gate the data on CD4+(lymphocytes) and CD4Low CD33Hi (monocytes), to measure the fluorescence from cells expressing pSTAT3 and pSTAT5 respectively. Analyze the data using FlowJo v_10 and the normalize the median of fluorescence versus maximum and minimum signal to determine the IC50s. […]

JAK1 = JAK1 (Homo sapiens, UniProt P23458); assay: AlphaScreen SureFire IL6-TF-1-JAK1 cell-based assay (pSTAT3 detection); parameters: endogenous in cells; host or cells: TF-1 cells; settings: TF-1 cells, IL6 30 ng/mL; n=10; read-out: IC50, IL6-stimulated TF-1 JAK1 cell-based assay
Sequence of JAK1 (P23458 whole entry): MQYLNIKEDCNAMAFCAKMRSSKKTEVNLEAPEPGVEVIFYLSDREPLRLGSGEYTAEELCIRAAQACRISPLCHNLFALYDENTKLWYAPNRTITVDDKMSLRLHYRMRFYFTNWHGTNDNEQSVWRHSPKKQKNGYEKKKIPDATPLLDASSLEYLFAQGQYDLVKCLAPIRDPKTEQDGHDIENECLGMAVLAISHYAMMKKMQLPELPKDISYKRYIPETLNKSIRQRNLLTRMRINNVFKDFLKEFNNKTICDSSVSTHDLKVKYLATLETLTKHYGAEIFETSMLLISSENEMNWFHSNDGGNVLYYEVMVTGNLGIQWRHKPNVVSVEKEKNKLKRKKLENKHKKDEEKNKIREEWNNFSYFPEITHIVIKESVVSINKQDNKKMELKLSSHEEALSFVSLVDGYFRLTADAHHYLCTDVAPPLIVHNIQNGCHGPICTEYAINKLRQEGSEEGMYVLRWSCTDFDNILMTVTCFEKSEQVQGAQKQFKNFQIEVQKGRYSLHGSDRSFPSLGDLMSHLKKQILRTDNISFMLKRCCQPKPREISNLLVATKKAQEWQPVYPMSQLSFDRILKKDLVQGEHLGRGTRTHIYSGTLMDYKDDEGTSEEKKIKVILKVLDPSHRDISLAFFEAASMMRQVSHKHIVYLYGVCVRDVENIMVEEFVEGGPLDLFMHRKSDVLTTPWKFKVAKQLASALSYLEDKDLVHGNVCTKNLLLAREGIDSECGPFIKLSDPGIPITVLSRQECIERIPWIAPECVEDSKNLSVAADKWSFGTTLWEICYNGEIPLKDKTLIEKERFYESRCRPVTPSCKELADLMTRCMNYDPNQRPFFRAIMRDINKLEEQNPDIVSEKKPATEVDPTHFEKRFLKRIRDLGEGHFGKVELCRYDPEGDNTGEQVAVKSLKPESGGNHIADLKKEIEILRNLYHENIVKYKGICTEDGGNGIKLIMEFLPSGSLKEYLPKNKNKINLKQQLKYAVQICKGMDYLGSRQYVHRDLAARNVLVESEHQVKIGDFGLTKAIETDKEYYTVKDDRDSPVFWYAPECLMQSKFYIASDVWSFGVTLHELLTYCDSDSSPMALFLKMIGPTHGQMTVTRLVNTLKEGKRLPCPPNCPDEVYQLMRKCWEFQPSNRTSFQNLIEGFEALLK
Procedure: AlphaScreen SureFire Protocol […]-(p-Tyr705)-IL6-TF-1-JAK1 Cell-Based Assay
The JAK1 cell based assay described below is used to determine the JAK1 cellular potency of test compounds.
Starve TF-1 cells in DMEM medium with 0.5% […] and 1× Pen/Strep at 37° C. Plate 100K cells per well in BD 96 well black plates with clear bottoms. Maintain the plates at RT for 30-60 minutes before incubating overnight at 37° C. and 5% CO2. Count cells using Vi-Cell counter, using a cell suspension at […] and plated 100 μL/well in […] Biocoat plates (Catalog #354640).
Prepare compounds at 1:3 serial dilutions in DMSO and further dilute into the medium. Test compounds in a range of 10 point concentrations from 20,000 to 1 nM. Add diluted compound to corresponding cell plates. […]
Perform the following steps sequentially: make acceptor mix (activation buffer/reaction buffer/acceptor beads); transfer 4 μL lysate from 96 well plates to 384 well-Proxiplates; add 5 μL acceptor mix to 384 proxiplate plate(s) and seal plates with aluminum seal; shake 1-2 minutes on plate shaker; incubate plate at RT for 2 hr with gentle shaking; make donor mix (donor beads in dilution buffer); add 2 μL donor mix to assay plates; seal plates with aluminum seal; shake 1-2 minutes on plate shaker; incubate at RT for 2 hr with gentle shaking; read plate with Envision; protocol AlphaScreen Surefire 384.

HCC827 xenograft tumor = assay: Efficacy Study in HCC827 Xenograft Tumor Model; format: in vivo, mouse; settings: oral gavage, 28 days, HCC827 xenograft mice
Procedure: Efficacy Study in HCC827 Xenograft Tumor Model
The purpose of this assay is to measure the ability of compounds to inhibit tumor growth in the HCC827 xenograft mouse model. Grow HCC827 cells (ATCC# CRL-2868, Lot#59392891) according to ATCC specifications at the lowest possible passage number available. Culture cells and maintain in RPMI-1640 supplemented with 10% FBS and incubate at 37° C. in 5% CO2. Harvest cells from flasks using TryPLE, rinse twice in DPBS, resuspend in HBSS, and mix with BD Biosciences basement membrane matrix (MATRIGEL®) to cell suspension to achieve a 1:1 cell/matrix ratio yielding an inoculation volume of 0.2 ml cell/matrix suspension containing 5e^6 cells. Maintain cell suspensions on ice throughout the inoculation procedure and start implantations within one hour after cell culture harvest. Administer implantations subcutaneously in the right rear flank of female CB17 SCID mice obtained from Harlan (18-20 g). Feed mice Harlan Teklad Protein Extruded 2920X ad libitum and provide water with the rack watering system. Allow the implanted tumor cells to grow as a solid tumor and measure twice a week along with body weight beginning the seventh day after implantation. Determine tumor volumes using the calculation: 0.536*L*W^2. After tumor volume reaches approximately 150-200 mm^3, randomize animals and place into groups containing 5-8 animals each. Formulate the compounds in 1% HEC vehicle containing 0.25% Tween 80 and 0.05% antifoam with 1.1 molar equivalent of methanesulfonic acid to form an in situ salt (1.1 mL of 1N methanesulfonic acid per (insert molecular weight) mg of compound). Store test compound at RT. Formulate compounds once per week, and store at RT. […] Calculate doses based on the most recent group mean body weight. Administer compounds by oral gavage for 28 days either BID or QD depending on dosage.

Sequence of JAK2 (O60674 whole entry): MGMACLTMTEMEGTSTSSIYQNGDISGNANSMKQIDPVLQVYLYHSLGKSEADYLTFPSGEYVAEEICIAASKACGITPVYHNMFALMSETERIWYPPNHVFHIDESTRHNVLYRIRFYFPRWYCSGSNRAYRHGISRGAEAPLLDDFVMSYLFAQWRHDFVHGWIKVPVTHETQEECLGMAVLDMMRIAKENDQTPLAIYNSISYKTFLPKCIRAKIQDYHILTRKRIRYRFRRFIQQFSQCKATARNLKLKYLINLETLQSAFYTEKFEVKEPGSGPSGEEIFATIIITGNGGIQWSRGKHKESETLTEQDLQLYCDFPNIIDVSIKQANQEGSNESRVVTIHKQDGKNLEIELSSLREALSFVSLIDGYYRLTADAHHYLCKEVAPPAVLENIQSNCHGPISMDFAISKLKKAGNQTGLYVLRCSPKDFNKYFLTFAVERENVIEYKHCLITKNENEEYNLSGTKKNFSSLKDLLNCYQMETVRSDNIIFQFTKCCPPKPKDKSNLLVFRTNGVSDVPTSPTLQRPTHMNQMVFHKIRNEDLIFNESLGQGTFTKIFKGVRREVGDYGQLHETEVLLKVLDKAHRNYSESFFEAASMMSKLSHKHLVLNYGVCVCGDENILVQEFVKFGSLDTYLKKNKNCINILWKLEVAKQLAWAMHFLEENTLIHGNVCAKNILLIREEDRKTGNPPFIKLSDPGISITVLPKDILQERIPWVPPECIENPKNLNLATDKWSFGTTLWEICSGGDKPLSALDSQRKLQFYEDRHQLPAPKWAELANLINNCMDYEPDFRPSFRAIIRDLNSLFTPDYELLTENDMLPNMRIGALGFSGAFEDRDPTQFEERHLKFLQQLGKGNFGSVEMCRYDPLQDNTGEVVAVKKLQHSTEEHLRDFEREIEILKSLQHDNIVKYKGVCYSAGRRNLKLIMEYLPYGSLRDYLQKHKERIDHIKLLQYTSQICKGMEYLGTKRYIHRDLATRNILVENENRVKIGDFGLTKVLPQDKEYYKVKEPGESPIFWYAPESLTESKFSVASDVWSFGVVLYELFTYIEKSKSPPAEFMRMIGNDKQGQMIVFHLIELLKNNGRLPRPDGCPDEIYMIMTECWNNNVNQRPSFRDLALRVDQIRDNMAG

Cc1cc(Nc2cc(O[C@H]3CC[C@@H](NC[C@@H](O)C(F)(F)F)CC3)cc3c2ncn3C)nn1C [Example 1, (2R)-3-{[cis-4-({4-[(1,5-Dimethyl-1H-pyrazol-3-yl)amino]-1-methyl-1H-benzimidazol-6-yl}oxy)cyclohexyl]amino}-1,1,1-trifluoropropan-2-ol]
IC50 (JAK2): 13 ± 3.2 µM | IC50 (JAK1): 0.087 µM | tumor growth inhibition (HCC827 xenograft tumor; 30 mg/kg BID): 31% | tumor regression (HCC827 xenograft tumor; 60 mg/kg BID): 22% | tumor regression (HCC827 xenograft tumor; 120 mg/kg QD): 22%
